Experimental data published in patent US5482967A, “Condensed heterocyclic compounds, their production and use” (Takeda Chemical Industries, Ltd., priority 1992, dated 1996).

The compounds below were run against T1, acyl-CoA:cholesterol acyl transferase (ACAT) (Rattus norvegicus, UniProt Q7TQM4) (assay: Inhibitory action against acyl-CoA:cholesterol acyl transferase (ACAT), formation of labeled cholesterol ester, small intestine mucosal microsome fraction). Details: 10^-6 M; read-out: ACAT Inhibitory Rate (%).
T1 construct: small intestine mucosal microsome fraction of a 6-week-old male Sprague-Dawley rat; from tissue; host or cells: rat small intestine mucosa, microsome fraction
T1 sequence (Q7TQM4 1-524): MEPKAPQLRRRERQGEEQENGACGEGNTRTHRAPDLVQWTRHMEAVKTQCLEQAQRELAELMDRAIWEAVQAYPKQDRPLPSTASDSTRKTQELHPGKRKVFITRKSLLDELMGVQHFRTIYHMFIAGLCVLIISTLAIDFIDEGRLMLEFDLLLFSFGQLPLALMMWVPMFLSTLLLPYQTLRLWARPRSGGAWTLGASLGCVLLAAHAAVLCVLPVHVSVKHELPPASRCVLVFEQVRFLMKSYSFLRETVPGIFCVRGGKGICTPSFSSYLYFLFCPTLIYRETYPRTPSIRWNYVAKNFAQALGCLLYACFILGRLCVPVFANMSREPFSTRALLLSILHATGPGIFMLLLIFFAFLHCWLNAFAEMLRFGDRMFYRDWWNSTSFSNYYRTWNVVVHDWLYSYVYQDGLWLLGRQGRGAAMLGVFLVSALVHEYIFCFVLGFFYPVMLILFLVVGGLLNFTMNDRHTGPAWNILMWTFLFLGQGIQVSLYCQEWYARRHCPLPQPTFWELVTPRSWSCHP
Assay type: biochemical, male Sprague-Dawley rat
Description: An ACAT enzyme preparation was prepared from a small intestine mucosal microsome fraction of a 6-week-old male Sprague-Dawley rat, previously fasted for 20 hours, in accordance with the method described by Heider et al. in the Journal of Lipid Research, Vol. 24, page 1127 (1982).
ACAT activity was determined by measuring the amount of labeled cholesterol ester produced from [1-^14 C]-oleoyl-CoA and endogenous cholesterol, in accordance with the method of Helgerud et al. [Journal of Lipid Research, Vol. 22, page 271 (1981)].

| Compound | inhibition at 1 µM [%] |
| --- | --- |
| Cc1cccc(NC(=O)[C@H]2[C@H](c3ccc(F)cc3)c3ccccc3C(=O)N2C)c1 (relative stereo) [Example 9, 3,4-trans-4-(4-Fluorophenyl)-1,2,3,4-tetrahydro-2-methyl-N-(3-methylphenyl)-1-oxo-3-isoquinolinecarboxamide] | 90.3 |
| Cc1cc2c(cc1C)N(C)C(=O)[C@@H](C(=O)Nc1ccc(F)cc1F)[C@@H]2c1ccccc1Cl (relative stereo) [Example 10, 3,4-trans-4-(2-Chlorophenyl)-N-(2,4-difluorophenyl)-1,2,3,4-tetrahydro-1,6,7-trimethyl-2-oxo-3-quinolinecarboxamide] | 93.3 |
| CC(C)c1ccc2c(c1)[C@@H](c1ccc(F)cc1)[C@H](C(=O)Nc1c(C(C)C)cccc1C(C)C)C(=O)O2 (relative stereo) [Example 13, 3,4-trans-N-[2,6-Bis(1-methylethyl)phenyl]-4-(4-fluorophenyl)-3,4-dihydro-6-(1-methylethyl)-2-oxo-2H-1-benzopyran-3-carboxamide] | 93.8 |
| Cc1cc2c(cc1C)N(C)C[C@@H](C(=O)Nc1c(C(C)C)cccc1C(C)C)[C@@H]2c1ccccc1Cl (relative stereo) [Example 15, 3,4-trans-N-[2,6-Bis(1-methylethyl)phenyl]-4-(2-chlorophenyl)-1,2,3,4-tetrahydro-1,6,7-trimethyl-3-quinolinecarboxamide] | 90.2 |
| Cc1cc2c(cc1C)N(C)C(=O)[C@@H](CC(=O)Nc1c(C(C)C)cccc1C(C)C)[C@@H]2c1ccccc1Cl (relative stereo) [Example 20, 3,4-trans-N-[2,6-Bis(1-methylethyl)phenyl]-4-(2-chlorophenyl)-1,2,3,4-tetrahydro-1,6,7-trimethyl-2-oxo-3-quinolineacetamide] | 97.8 |
| CC(C)c1cccc(C(C)C)c1NC(=O)C[C@@H]1C(=O)N(C)c2ccc(Cl)cc2[C@H]1c1ccccc1Cl (relative stereo) [Example 21, 3,4-trans-N-[2,6-Bis(1-methylethyl)phenyl]-6-chloro-4-(2-chlorophenyl)-1,2,3,4-tetrahydro-1-methyl-2-oxo-3-quinolineacetamide] | 99.3 |
| Cc1cccc(C(C)C)c1NC(=O)C[C@H]1C(=O)N(C)c2ccc(Cl)cc2[C@H]1c1ccccc1 (relative stereo) [Example 22, 3,4-cis-6-Chloro-1,2,3,4-tetrahydro-1-methyl-N-[2-methyl-6-(1-methylethyl)phenyl]-2-oxo-4-phenyl-3-quinolineacetamide] | 97.9 |
| Cc1cccc(C(C)C)c1NC(=O)C[C@@H]1C(=O)N(C)c2ccc(Cl)cc2[C@H]1c1ccccc1 (relative stereo) [Example 23, 3,4-trans-6-Chloro-1-methyl-N-[2-methyl-6-(1-methylethyl)phenyl]-2-oxo-4-phenyl-1,2,3,4-tetrahydro-3-quinolineacetamide] | 99.4 |
| COc1cc(OC)c(NC(=O)C[C@@H]2C(=O)N(C)c3ccc(Cl)cc3[C@H]2c2ccccc2)c(OC)c1 (relative stereo) [Example 25, 3,4-trans-6-Chloro-1,2,3,4-tetrahydro-1-methyl-2-oxo-4-phenyl-N-(2,4,6-trimethoxyphenyl)-3-quinolineacetamide] | 96.9 |
| CN1C(=O)[C@@H](CC(=O)Nc2ccc(F)cc2F)[C@H](c2ccccc2)c2cc(Cl)ccc21 (relative stereo) [Example 27, 3,4-trans-6-Chloro-N-(2,4-difluorophenyl)-1,2,3,4-tetrahydro-1-methyl-2-oxo-4-phenyl-3-quinolineacetamide] | 92 |
| Cc1cccc(C)c1NC(=O)C[C@@H]1C(=O)N(C)c2ccc(Cl)cc2[C@H]1c1ccccc1 (relative stereo) [Example 29, 3,4-trans-6-Chloro-N-(2,6-dimethylphenyl)-1,2,3,4-tetrahydro-1-methyl-2-oxo-4-phenyl-3-quinolineacetamide] | 98.4 |
| Cc1cc(C)c(NC(=O)C[C@@H]2C(=O)N(C)c3ccc(Cl)cc3[C@H]2c2ccccc2)c(C)c1 (relative stereo) [Example 31, 3,4-trans-6-Chloro-1,2,3,4-tetrahydro-1-methyl-2-oxo-4-phenyl-N-(2,4,6-trimethylphenyl)-3-quinolineacetamide] | 97.5 |
| CC(C)c1cccc(C(C)C)c1NC(=O)C[C@H]1C(=O)N(C)c2ccc(Cl)cc2[C@H]1c1ccccc1 (relative stereo) [Example 32, 3,4-cis-N-[2,6-Bis(1-methylethyl)phenyl]-6-chloro-1,2,3,4-tetrahydro-1-methyl-2-oxo-4-phenyl-3-quinolineacetamide] | 96 |
| CC(C)c1cccc(C(C)C)c1NC(=O)C[C@@H]1C(=O)N(C)c2ccc(Cl)cc2[C@H]1c1ccccc1 (relative stereo) [Example 33, 3,4-trans-N-[2,6-Bis(1-methylethyl)phenyl]-6-chloro-1,2,3,4-tetrahydro-1-methyl-2-oxo-4-phenyl-3-quinolineacetamide] | 98.9 |
| CC(C)c1cccc(C(C)C)c1NC(=O)C[C@H]1CN(C)c2ccc(Cl)cc2[C@H]1c1ccccc1 (relative stereo) [Example 36, 3,4-cis-N-[2,6-Bis(1-methylethyl)phenyl]-6-chloro-1,2,3,4-tetrahydro-1-methyl-4-phenyl-3-quinolineacetamide] | 98.8 |
| Cc1ccc2c(c1)[C@@H](c1ccccc1)[C@H](CC(=O)Nc1c(C(C)C)cccc1C(C)C)C(=O)N2C (relative stereo) [Example 60, 3,4-trans-N-[2,6-Bis(1-methylethyl)phenyl]-1,2,3,4-tetrahydro-1,6-dimethyl-2-oxo-4-phenyl-3-quinolineacetamide] | 99.9 |
| COc1cc2c(cc1OC)N(C)C(=O)C(CC(=O)Nc1c(C(C)C)cccc1C(C)C)C2c1ccccc1 (stereo not shown) [Example 18, N-[2,6-Bis(1-methylethyl)phenyl]-1,2,3,4-tetrahydro-6,7-dimethoxy-1-methyl-2-oxo-4-phenyl-3-quinolineacetamide] | 97.3 |
| CC(C)c1cccc(C(C)C)c1NC(=O)CC1C(=O)N(C)c2ccc(Cl)cc2C1(C)c1ccccc1 (stereo not shown) [Example 19, N-[2,6-Bis-(1-methylethyl)phenyl]-6-chloro-1,2,3,4-tetrahydro-1,4-dimethyl-2-oxo-4-phenyl-3-quinolineacetamide] | 99.1 |
| CC(C)c1cccc(C(C)C)c1NC(=O)CC1C(=O)N(C)c2ccc(Cl)cc2N1c1ccccc1 (stereo not shown) [Example 42, N-[2,6-Bis(1-methylethyl)phenyl]-6-chloro-1,2,3,4-tetrahydro-1-methyl-2-oxo-4-phenyl-3-quinoxalineacetamide] | 96.6 |
| COc1cc(OC)c(NC(=O)CC2C(=O)N(C)c3ccc(Cl)cc3N2c2ccccc2)c(OC)c1 (stereo not shown) [Example 43, 6-Chloro-1,2,3,4-tetrahydro-1-methyl-2-oxo-4-phenyl-N-(2,4,6-trimethoxyphenyl)-3-quinoxalineacetamide] | 98.2 |
| CC(C)c1cccc(C(C)C)c1NC(=O)Cc1c(-c2ccccc2)c2cc(Cl)ccc2n(C)c1=O [Example 45, N-[2,6-Bis(1-methylethyl)phenyl]-6-chloro-1,2-dihydro-1-methyl-2-oxo-4-phenyl-3-quinolineacetamide] | 99.5 |

These compounds were tested against substance P receptor (Homo sapiens, UniProt P25103) (assay: Radioligand receptor binding inhibitory assay using receptor from human lymphoblast cells (IM-9), 125I-BHSP). Details: IM-9 receptor, 25° C., 30 minutes.
Sequence of substance P receptor (P25103 whole entry): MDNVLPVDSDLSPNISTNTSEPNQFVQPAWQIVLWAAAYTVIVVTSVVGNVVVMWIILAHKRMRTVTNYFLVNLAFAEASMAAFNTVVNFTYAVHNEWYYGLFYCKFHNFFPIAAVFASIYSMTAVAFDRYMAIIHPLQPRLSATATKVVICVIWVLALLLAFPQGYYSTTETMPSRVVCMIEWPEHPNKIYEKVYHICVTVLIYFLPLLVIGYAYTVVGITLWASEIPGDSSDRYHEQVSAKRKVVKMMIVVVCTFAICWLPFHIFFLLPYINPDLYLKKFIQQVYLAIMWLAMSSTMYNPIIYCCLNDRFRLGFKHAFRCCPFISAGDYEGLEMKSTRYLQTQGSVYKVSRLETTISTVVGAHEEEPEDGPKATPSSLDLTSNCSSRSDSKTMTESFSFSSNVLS
Summary of the method: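 IM-9 lymphoblast membranes (suspended at 1.5 mg/ml protein) were incubated with 125I-BHSP (0.46 KBq) at 25 °C for 30 min in 50 mM Tris-HCl pH 7.4 with BSA, protease inhibitors and 3 mM MnCl2. Nonspecific binding was defined with 2×10^-6 M substance P. Bound radioactivity was collected on PEI-treated GF/B filters and gamma-counted.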

| Compound | IC50 [nM] |
| --- | --- |
| COc1nc(C(=O)N(C)Cc2cc(C(F)(F)F)cc(C(F)(F)F)c2)c(-c2ccccc2)c2ccccc12 [Example 277, N-[3,5-Bis(trifluoromethyl)benzyl]-1-methoxy-N-methyl-4-phenyl-3-isoquinolinecarboxamide] | 54 |
| CNc1nc(C(=O)N(C)Cc2cc(C(F)(F)F)cc(C(F)(F)F)c2)c(-c2ccccc2)c2ccccc12 [Example 278, N-[3,5-Bis(trifluoromethyl)benzyl]-N-methyl-1-methylamino-4-phenyl-3-isoquinolinecarboxamide] | 10 |
| CN(Cc1cc(C(F)(F)F)cc(C(F)(F)F)c1)C(=O)c1c(-c2ccccc2)c2ccccc2c(=O)n1CC[N+](C)(C)C [Example 282, N-[3,5-Bis(trifluoromethyl)benzyl]-1,2-dihydro-N-methyl-1-oxo-4-phenyl-2-[2-(N,N,N-trimethylammonium)ethyl]-3-isoquinolinecarboxamide] | 22 |
| CN(Cc1cc(C(F)(F)F)cc(C(F)(F)F)c1)C(=O)c1c(-c2ccccc2)c2ccccc2c(=S)n1C [Example 285, N-[3,5-Bis(trifluoromethyl)benzyl]-1,2-dihydro-N,2-dimethyl-4-phenyl-1-thioxo-3-isoquinolinecarboxamide] | 9.4 |
